“And” between values parts separate entries of the source, which are not always exact repeats. Equal values may be shown once.
Assays:
solid tumors = experiment: Example 3: solid tumor patients, antitumor activity; type: in vivo, human
Excerpt: (§1) The patients were characterized as follows: 15 male, 13 female; age range 33-78 years; median age 55 years; median PS 0; WHO PS, 0 (22 patients), 1 (3 patients), 2 (3 patients). The number of pretreatment regimens ranged from 0 to 9, with a median of 2. The tumors types (number of patients) were: renal cell carcinoma (4); neuroendocrine tumors (4); colorectal cancer (3); non-small cell lung cancer (2); mesotheliomas (2); uterine carcinoma (2); breast cancer (2); pancreas (2); angiosarcoma (2); esophagus (1); undifferentiated carcinoma of nasopharynx (1); parotid adenocarcinoma (1); melanoma (1); gastrointestinal stromal tumor (1). […] All other trials were dosed with flat doses (i.e., mg). All dosage amounts are free-base equivalents. A plus symbol (+) following the number of cycles indicates the patient was still on study at the date the data were summarized.

[1] = Example 3: solid tumor patients, dose limiting toxicities; type: in vivo, human
Excerpt: as §1

[2] = test system: metastatic renal cell carcinoma (RCC); experiment: Example 1: metastatic renal cell carcinoma patients, best response by RECIST; type: in vivo, human
Excerpt: (§2) Eligibility included measurable disease, ECOG performance status of 0 or 1, failure of one prior cytokine-based therapy due to disease progression or toxicity, and adequate cardiac function as defined by normal ejection fraction on MUGA or ECHO. Patients were excluded if they had significant cardiac events within the past 12 months or received more than one prior cytokine regimen.

[3] = Example 2: AML patients, toxicities; type: in vivo, human
Method: (§3) Constitutively activating mutations of the receptor FLT3 are present in approximately 30% of patients with AML and correlate with poor prognosis. […] Two dose levels (50 and 75 mg) and 2 schedules (Group A: 4 weeks of treatment followed by a 14 day rest period; and Group B: 4 weeks of treatment followed by a 7 day rest period) were evaluated in 3 cohorts of patients. Flt3 genotyping for ITD and D835 mutations was performed to enable retrospective stratification. Correlative laboratory studies to assess inhibition of target phosphorylation, and modulation of signaling pathways regulating apoptosis and proliferation were performed by Western blot and immunohistochemistry analyses and FL expression and IHC were conducted.

primary or secondary AML = experiment: Example 2: AML patients, clinical activity by WHO criteria; type: in vivo, human; set-up: key to Best Response: NE: not evaluated; PR: partial response; SD: stable disease; PD: Progressive Disease; settings: for Best Response: AML, one line per patient
Method: as §3

[4] = Example 1: metastatic renal cell carcinoma patients, adverse events; type: in vivo, human
Excerpt: as §2

[5] = test system: bone marrow engraftment model; experiment: bone marrow engraftment model; type: in vivo; settings: pre-clinical experiments
FLT3 = experiment: Example 2: AML patients, FLT3 phosphorylation and expression (Western blot, immunohistochemistry); type: in vivo, human
Method: as §3

FLT3-ITD xenograft tumor = FLT3-ITD xenograft tumor model; type: in vivo; settings: pre-clinical experiments
blood/plasma half life = type: in vivo
Method: Administration of the compound of formula 1, or its active metabolite 2, in an effective dosing regimen, must take into account the long blood/plasma half lives of these two compounds, approximately 40 and 80 hours, respectively, as well as their safety profiles. Thus, there is a need for safe and therapeutically effective dosing regimens for administering the compounds of formula 1 and 2 to a mammal, including a human, for treating abnormal cell growth, such as cancer.

[6] = all dosing schedules, 23 evaluable
[7] = 63 metastatic RCC patients, 50 mg daily orally 4 weeks, 2-week rest
[8] = 15 AML patients, 50 or 75 mg daily
[9] = 15 AML patients, 50 or 75 mg daily, 4 weeks treatment, 14 or 7 day rest, mainly grade 1-2
[10] = preliminary safety data N=44, 50 mg daily 4 weeks/2-week rest, mostly grades 1 and 2
[11] = preliminary safety data N=44, without signs of pancreatitis

CCN(CC)CCNC(=O)c1c(C)[nH]c(/C=C2\C(=O)Nc3ccc(F)cc32)c1C [5-(5-fluoro-2-oxo-1,2-dihydroindol-(3Z)-ylidenemethyl)-2,4-dimethyl-1H-pyrrole-3-carboxylic acid (2-diethylaminoethyl)-amide]
Tumor Progression (solid tumors; 50 mg Q2D, 3 patients): 3
Tumor Response (#) (solid tumors; 50 mg Q2D, 3 patients): 0
Tumor Stabilization (#) (solid tumors; 50 mg Q2D, 3 patients): 0
Tumor Stabilization, Time (solid tumors; 50 mg QD): 8 months
Tumor Progression (solid tumors; 50 mg QD, 6 patients): 5
Tumor Response (#) (solid tumors; 50 mg QD, 6 patients): 0
Tumor Stabilization (#) (solid tumors; 50 mg QD, 6 patients): 1
Tumor Progression (solid tumors; 75 mg QD, 9 patients): 0
Tumor Response (#) (solid tumors; 75 mg QD, 9 patients): 3
Tumor Stabilization (#) (solid tumors; 75 mg QD, 9 patients): 2
Tumor Stabilization, Time (solid tumors; 75 mg QD, one value per patient): 4 months and 5 months
Tumor Progression (solid tumors; 100 mg Q2D, 1 patient): 0
Tumor Response (#) (solid tumors; 100 mg Q2D, 1 patient): 1
Tumor Stabilization (#) (solid tumors; 100 mg Q2D, 1 patient): 0
Tumor Stabilization, Time (solid tumors; 100 mg QD): 6 months
Tumor Progression (solid tumors; 100 mg QD, 3 patients): 0
Tumor Response (#) (solid tumors; 100 mg QD, 3 patients): 2
Tumor Stabilization (#) (solid tumors; 100 mg QD, 3 patients): 1
Tumor Stabilization, Time (solid tumors; 150 mg QD): 3 months
Tumor Progression (solid tumors; 150 mg QD, 1 patient): 0
Tumor Response (#) (solid tumors; 150 mg QD, 1 patient): 0
Tumor Stabilization (#) (solid tumors; 150 mg QD, 1 patient): 1
Tumor Progression, totals (solid tumors; [6]): 8/23
Tumor Response (#), totals (solid tumors; [6]): 6/23
Tumor Stabilization (#), totals (solid tumors; [6]): 5/23
patients with dose limiting toxicities at cycle 1 ([1]; 50 mg daily patients): 2 of 9
dose limiting toxicity grade 3 edema ([1]; 50 mg daily patients, cycle 1): 1 patient
dose limiting toxicity grade 4 thrombocytopenia ([1]; 50 mg daily patients, cycle 1): 1 patient
patients with dose limiting toxicities at cycle 1 ([1]; 75 mg daily patients): 5 of 11
dose limiting toxicity grade 3 asthenia ([1]; 75 mg daily patients, cycle 1): 3 patients
dose limiting toxicity grade 3 hypertension ([1]; 75 mg daily patients, cycle 1): 1 patient
dose limiting toxicity grade 5 tumor necrosis ([1]; 75 mg daily patients, cycle 1): 1 patient
patients with dose limiting toxicities at cycle 1 ([1]; 100 mg daily patients): 2 of 3
dose limiting toxicity grade 3 asthenia ([1]; 100 mg daily patients, cycle 1): 1 patient
dose limiting toxicity grade 3 hypertension ([1]; 100 mg daily patients, cycle 1): 1 patient
course of asthenia ([1]; cycle 1): progressively from grade 1 at week 1 to grade 3-4 at week 4
main dose-limiting toxicity ([1]; doses greater than or equal to 50 mg, appeared during cycle 1): Asthenia
rest period required for reversal of grade 3 asthenia ([1]; human, in vivo): 2-4 week
dose limiting toxicity at cycle 1 ([1]; the 150 mg daily patient): grade 3 asthenia
taken off study for PD ([2]; 63 metastatic RCC patients): Twelve
Best response by RECIST: confirmed partial, patients [2, 7]: 16%
Best response by RECIST: progression, patients [2, 7]: 27%
Best response by RECIST: stable, patients [2, 7]: 41%
reduction of unidimensional measurement of at least 30%, awaiting confirmation of response status, patients [2, 7]: 10%
partial responders remaining progression free ([2]; of 10 patients with partial response, median follow-up of 4 months from start of therapy): 9
partial responders who progressed ([2]; of 10 patients with partial response, progressed at 5 months): 1 patient
Grade 3 drug related fatigue, patients [3, 8]: 20%
toxicity: diarrhea [3, 9]: 13%
toxicity: fatigue [3, 9]: 27%
toxicity: nausea [3, 9]: 33%
toxicity: vomiting [3, 9]: 13%
dose limiting toxicity, fatigue grade 4 (number) ([3]; at 75 mg): One
evidence of clinical activity of short duration by WHO criteria (primary or secondary AML; [8]): 7 patients
morphologic response (less than 5% blasts in bone marrow, absence of blasts in peripheral blood), number of patients (primary or secondary AML; [8]): 1
partial responses (reduction of blasts by more than 50% in blood and bone marrow), number of patients (primary or secondary AML; [8]): 6
Best Response (primary or secondary AML; 50 mg daily, schedule 4/1 weeks treatment/rest): SD (3×) and PR (2×)
Best Response (primary or secondary AML; 50 mg daily, schedule 4/2 weeks treatment/rest): PD (3×) and PR (3×) and Morph. R
Best Response (primary or secondary AML; 75 mg daily, schedule 4/2 weeks treatment/rest): PR
rebound of blasts during the treatment-free (rest) period, patients (primary or secondary AML; of the 7 patients with clinical activity): 2
responding patients with mutated FLT3 (ITD or D835) (primary or secondary AML; of the responding patients): Three
taken off study for toxicity ([4]; 63 metastatic RCC patients): 8 patients
Grade 3 event: anemia ([4]; preliminary safety data N=44): 5%
Grade 3 event: leukocytopenia ([4]; preliminary safety data N=44): 5%
Grade 3 event: lymphopenia ([4]; preliminary safety data N=44): 32%
Grade 3 event: neutropenia ([4]; preliminary safety data N=44): 9%
grade 3 thrombocytopenia ([4]; preliminary safety data N=44): no patients
adverse event constipation, frequency [4, 10]: 34%
adverse event diarrhea, frequency [4, 10]: 46%
adverse event dyspepsia, frequency [4, 10]: 30%
adverse event fatigue/asthenia, frequency [4, 10]: 67%
adverse event nausea, frequency [4, 10]: 50%
adverse event stomatitis, frequency [4, 10]: 43%
Grade 3 event: elevated amylase [4, 11]: 9%
Grade 3 event: elevated lipase [4, 11]: 23%
decreases in left ventricular ejection fraction >20% without clinical symptoms ([4]; taken off the study): Two

CCN(CC)CCNC(=O)c1c(C)[nH]c(/C=C2\C(=O)Nc3ccc(F)cc32)c1C [Compound 1, 5-(5-fluoro-2-oxo-1,2-dihydroindol-(3Z)-ylidenemethyl)-2,4-dimethyl-1H-pyrrole-3-carboxylic acid (2-diethylaminoethyl)-amide]
efficacy in bone marrow engraftment model [5]: dose-dependent efficacy
target inhibition (FLT3; 50 mg dose): consistently observed
time to decreased FLT3 protein expression (FLT3; patient with FLT3 ITD mutation, Group B, consistent with decreasing blast counts): ≤ 8 days
FLT3 phosphorylation after administration (FLT3; patient with FLT3 ITD mutation, Group B, similar in 2 other FLT3 mutant patients): inhibition of FLT3 phosphorylation
efficacy in FLT3-ITD xenograft tumor model (FLT3-ITD xenograft tumor): dose-dependent efficacy
half-life (blood/plasma half life): ~40 h
tolerability in advanced AML population ([3]; 50 mg dose): tolerable
duration of partial response (primary or secondary AML; one patient with FLT3 ITD mutation, Group B (50 mg daily, 4 weeks treatment/7 day rest)): 4 month

CCNCCNC(=O)c1c(C)[nH]c(/C=C2\C(=O)Nc3ccc(F)cc32)c1C [Compound 2, 5-(5-fluoro-2-oxo-1,2-dihydroindol-(3Z)-ylidenemethyl)-2,4-dimethyl-1H-pyrrole-3-carboxylic acid (2-ethylaminoethyl)-amide]
half-life (blood/plasma half life): ~80 h

— patent US20050182122A1, “Method of treating abnormal cell growth using indolinone compounds” (priority 2003, published 2005)
